In patent US20180289957A1, “REMINERALISATION OF CALCIFIED TISSUE” (Reminova Ltd., priority 2008, published 2018):

Tested on: extracted incisor tooth
Experiment: Tooth-whitening effect on extracted incisor tooth, images before and after treatment
Details: 2 minutes pre-conditioning with solution, no remineralising agent
From the text: This image was taken prior to any treatment being carried out.
The dark discolourations in the enamel of the crown of the tooth adjacent to the cavity have also disappeared.

SMILES: OCl [hypochlorite, sodium hypochlorite]
- tooth discolouration, difference versus before treatment: very little difference
